{"source": "paper PMC4683533", "about": "“Discovery of novel INK4C small-molecule inhibitors to promote human and murine hematopoietic stem cell ex vivo expansion” (Scientific Reports, 2015)", "key": {"KG-1a": {"tested_on": "KG-1a", "experiment": "MTT proliferation assay on leukemia cell line", "assay_type": "cell-based", "text": "(§1) With confirmation of compound 40 promoting the expansion of HSCs, we further examined whether it might also increase the risk of malignant diseases. In order to determine the effect of compound 40 on hematological tumorigenesis, proliferation of both leukemia cell lines (KG-1 and KG-1a) and myeloma cell lines (MM.1S and RPMI 8226) was further investigated by a standard MTT assay.\n(§2) To evaluate the toxicity of our top compounds, we performed a cell proliferation assay using 32D cells as well as leukemia cell lines and myeloma cell lines. Weihi-3 cells were cultured at 37 °C under 5% CO2 in RPMI 1640 medium supplemented with 10%FBS. After 48 h, the supernatant was collected and filtered. 32D cells were cultured in RPMI 1640 with 10% FBS and 10% supernatant collected from Weihi-3 cells. 8,000 32D cells or leukemia cell line (KG-1 or KG-1a) or myeloma cell line (MM.1S or RPMI 8226) were plated in a 96-well plate in 198 μL culture media per well, and then cultured (37 °C, 5% CO2) overnight. 2 μL of serially diluted compounds dissolved in saline or DMSO were added to each well and incubated (37 °C, 5% CO2) for 72 h. The concentration of DMSO was equal to the one in corresponding compound group. 20 μL of MTT solution was added to each well and then incubated (37 °C, 5% CO2) for 4 h. The percentage of cell survival was determined using the MTT assay, as previously described. The data was analyzed using GraphPad Prism v6.0."}, "KG-1": {"tested_on": "KG-1", "experiment": "MTT proliferation assay on leukemia cell line", "assay_type": "cell-based", "text": "as §1, §2"}, "[1]": {"tested_on": "human cord blood CD34+ cells (CD34+CD49f+ cells)", "experiment": "human cord blood CD34+ cell ex vivo culture and screen", "assay_type": "cell-based", "procedure": "Based on our study of murine HSCs, we further tested whether these p18SMIs could expand human cord blood CD34^+ cells in ex vivo culture. […] We cultured human cord blood CD34^+ cells for 7 days in HSCs expansion media in the presence of 200 nM of p18SMIs, and then analyzed the percentage and absolute number of CD34^+CD49f^+ cells by flow cytometry. We screened 40 p18SMIs, of which14 compounds could increase the number of CD34^+CD49f^+ cells compared with the control group (Fig. S6). […] Then we conducted a concentration gradient assay on top three p18SMIs with ED50 less than 10 nM (compounds 22, 40 and 41). […] Only in specific doses could they show their expansion effect on human HSCs (Fig. 4B).\nHuman cord blood samples were collected from consenting donors according to ethically approved procedures at Tianjin Central Hospital of Gynecology Obstetrics (Tianjin, China), under a protocol approved by the Ethical Committee on Medical Research at the Institute of Hematology. Human CD34^+ cord blood cells were isolated using human CD34 MicroBead Kit (MiltenyiBiotec) according to the manufacturer’s protocol after settling red cells with HES and red cells lysis with ACK Lysis Buffer.\nHuman CD34^+ cells were cultured in expansion medium consisting of StemSpan SFEM (StemCell Technologies) supplemented with 100 ng/mL human stem cell factor (SCF, PeproTech), 50 ng/mL human thrombopoietin (TPO, PeproTech), 100 ng/mL human FMS-like trysine kinase 3 ligand (Flt3L, PeproTech). Human CD34^+ cells were resuspended in expansion medium (5 × 10^4 cells/mL) before being aliquoted in 96-well plates (Costar, Corning Incorporated). Compounds, all with a final concentration of 200 nM, were dissolved in DMSO and added immediately in cell suspension after plating. The final concentration of DMSO in the control group was the same as in the compounds-treated group. Cells were cultured at 37 °C in 5% CO2. Based on the results of primary screening upon human cells and the results of ED50, we chose three compounds for further experiments. The expansion medium was changed to StemSpan SFEM (StemCell Technologies) supplemented with 100 ng/mL human stem cell factor (SCF, PeproTech), 100 ng/mL human thrombopoietin (TPO, PeproTech), 100 ng/mL human FMS-like trysine kinase 3 ligand (Flt3L, PeproTech) and 100 ng/mL human interleukin-6 (IL-6, PeproTech) for better expansion effect. The incubation condition was consistent with before.\nPhenotypes analysis of cultured cells was performed on a BD FACS Array (Becton Dickinson Biosciences) using a combination of the following antibodies: APC anti-CD34 (BD Biosciences), PE anti-CD49f (BD Biosciences). Stained cells were washed once with PBS and then measured and analyzed on an FACS analyzer (FACSArray, BD Biosciences)."}, "RPMI 8226": {"tested_on": "RPMI 8226", "experiment": "MTT proliferation assay on myeloma cell line", "assay_type": "cell-based", "text": "as §1, §2\n(1 picture or pasted object on this page, not shown here)"}, "LT-HSCs": {"tested_on": "LT-HSCs", "experiment": "dependence of HSC expansion on CDK4/6 versus CDK2 (co-treatment with CDK inhibitors)", "assay_type": "cell-based, mouse", "text": "To assess a direct role for p18-CDK6 signaling in HSCs expansion induced by compound 40, we used the CDK4/6-specific inhibitor PD0332991 to block CDK6 activation. As a control, we blocked CDK2 with SNS032, a CDK2 selective inhibitor. […] So here we wanted to explore whether p18SMI compound’s HSCs expansion effect was abrogated by CDK4/6 inhibitor or CDK2 inhibitor."}, "[2]": {"tested_on": "c-Kit enriched BM cells (primary hematopoietic cells)", "experiment": "apoptosis analysis by Annexin V staining", "assay_type": "cell-based", "conditions": "effective concentration (20 μM), 5 days, compared with negative control group", "procedure": "(§3) First, a cell-proliferation assay was performed on the immortalized myeloblast-like cell line 32D cells to evaluate general cytotoxicity. […] We also evaluated cytotoxicity using primary hematopoietic cells.\nFigure 6 Cytotoxicity assessment of top p18SMI compounds. (A) Cell proliferation assay was performed on 32D cells to evaluate general cytotoxicity. The cell survival was determined by the MTT assay. (B) Apoptosis statistics analysis of cultured c-Kit enriched BM cells which were cultured with cytokine plus 20 μM compound 40 or DMSO. Uncultured bone marrow cells were irradiated by UV to serve as positive control. Apoptosis was checked by Annexin V staining on hematopoietic cells. (C,D) Proliferation effect of compound 40 on leukemia cell lines KG-1 and KG-1a. The cell survival was determined with the MTT assay. Data is mean ± SEM for all experiments of two or more and were performed in duplicate or triplicate.\nc-Kit enriched BM cells were cultured for 5 days with cytokine combination plus compound 40 or DMSO. […] Apoptosis and cell death were measured by AnnexinV and DAPI staining according to the manufacturer’s instructions in the Annexin V-FITC Apoptosis Detection Kit (BD Biosciences). Apoptosis was measured on an FACS analyzer (LSR Fortessa, BD Biosciences). The data was analyzed using FlowJo software (Treestar, Inc.)."}, "32D cells": {"tested_on": "32D cells", "experiment": "MTT cell proliferation assay, general cytotoxicity", "assay_type": "cell-based", "procedure": "as §3, §2"}}, "note": "“Also recorded” adds a separate entry of the source.", "data": [{"compound": "O=C([O-])c1ccc(S(=O)(=O)NC2CCCCC2)cc1.[Na+]", "note": "[Compound 40, sodium 4-(N-cyclohexylsulfamoyl)benzoate]", "values": [{"measurement": "enhancement of proliferation (MTT)", "setting": "KG-1a; any concentration", "value": "did not enhance; also recorded: no activity"}, {"measurement": "effect on leukemia cell line", "setting": "KG-1a; high concentration (20 μM)", "value": "no effect"}, {"measurement": "enhancement of proliferation (MTT)", "setting": "KG-1; any concentration", "value": "did not enhance; also recorded: no activity"}, {"measurement": "effect on leukemia cell line", "setting": "KG-1; high concentration (20 μM)", "value": "no effect"}, {"measurement": "increase in the absolute number of CD34+CD49f+ cells", "setting": "[1]; 200 nM, 7 days in HSCs expansion media, versus control group", "value": "> 30", "unit": "%"}, {"measurement": "expansion of human HSCs in concentration gradient assay", "setting": "[1]; dose response, Fig. 4B", "value": "concentration related"}, {"measurement": "enhancement of proliferation (MTT)", "setting": "RPMI 8226; 5 μM", "value": "did not enhance"}, {"measurement": "effect on myeloma cell line", "setting": "RPMI 8226; high concentration (20 μM)", "value": "no effect"}, {"measurement": "number of LT-HSCs", "setting": "LT-HSCs; in the PD0332991-treated group (CDK4/6-specific inhibitor)", "value": "failed to increase"}, {"measurement": "number of LT-HSCs", "setting": "LT-HSCs; in the SNS032-treated group (CDK2 selective inhibitor)", "value": "still enhanced"}, {"measurement": "cytotoxicity / apoptotic cell death in primary hematopoietic cells (HSCs)", "setting": "[2]", "value": "did not show significant cytotoxicity; also recorded: did not increase apoptotic cell death; also recorded: not cytotoxic"}, {"measurement": "cytotoxicity toward 32D cells", "setting": "32D cells", "value": "did not show significant cytotoxicity; also recorded: not cytotoxic"}, {"measurement": "cytotoxic effects (cell viability, MTT)", "setting": "32D cells; 25 μM", "value": "did not show any cytotoxic effects"}, {"measurement": "cell viability (MTT)", "setting": "32D cells; 50 μM, thought to be due to cytotoxicity of the solvent DMSO", "value": "only slight decreases in cell viability"}]}]}
